Patent publication US10561629B2, “Food containing glycine and use thereof” (AJINOMOTO CO., INC., priority 2004, dated 2020)
Where two headings read alike, the source gives them in different places.

Columns and labels:
[1] = one participant, 1.0-1.5 g tablet glycine, trip to East Coast USA, vs previous similar trips
From the text: In the Figure, glycine (substantially pure tablet glycine containing only excipient and flavor) was taken at the time point marked with an arrow, wherein 1.0 g was taken on “June 20” and “June 21” and 1.5 g was taken on “June 22”-“June 26” and “June 29”.

[2] = beagles, oral 30 or 300 mg/kg
Experimental: Glycine (substantially pure glycine powder) was administered at 0, 30, or 300 mg/kg (0 mg/kg for control, CTRL) to beagles, and using the beagles, the R-R interval in electrocardiogram was measured by a telemetry system as an index of sympathetic activity. The measurement was conducted in the night after glycine administration. From the R-R interval after oral administration of glycine, moreover, sympathetic activity ((low frequency component LF)/(high frequency component HF)) and parasympathetic activity (high frequency component HF) were examined by power spectrum analysis.

[3] = Experimental: A double-blind crossover test aiming at confirmation of the effect of glycine on sleep was performed with 14 male adults (body weight 64-112.5 kg, average 81.2 kg) concerned about snoring and apnea condition during sleep. The test participants took glycine (granules containing citric acid and the like) in an amount equivalent to 3 g of glycine 1 hr before bedtime, and reduced maltose containing components other than glycine (citric acid and the like) and adjusted to an almost indistinguishable taste was used as a placebo.
In addition, the sleep condition of the night before was examined on waking using the sleep questionnaire.

[4] = rats, 2 g/kg, mean±standard error
Experimental: Glycine (substantially pure glycine powder) was administered to rats at 0 g/kg and 2 g/kg (0 g/kg for control) and using the rat, spontaneous electroencephalogram and cervix electromyogram were recorded through an electrode placed in the cortex hippocampus, and further, the amount of spontaneous motor activity was measured by an infrared ray monitor. The sleep-wake cycle was analyzed from the electroencephalogram, electromyogram and behavior record (kymogram), and percent occupation of light period and dark period and latency time were calculated.

[5] = 3 g 30 min before bedtime, sleep limited to about 75%, next daytime, mean ± standard error
Experimental: (§1) A single-blind crossover study aimed at confirmation of the effect of glycine on sleep was performed with 7 male adults (30s-40s, body weight 62-79 kg). The test participants took glycine (granule containing citric acid and the like) in an amount equivalent to 3 g of glycine 30 min before bedtime, and reduced maltose containing components other than glycine (citric acid and the like) and adjusted to an almost indistinguishable taste was used as a placebo. The sleep hours on the day of administration was limited to about 75% (5-6.5 hr) of comfortable sleep hours each test participant voluntarily notified, and a nap was prohibited until the end of the administration. For the test, glycine and placebo were each taken for 3 days with an interval of a 14-21 day non-intake period, totaling 4-5 weeks. Of the 3 days, the following investigation and measurement were performed at 10 o'clock, 14 o'clock and 18 o'clock of the next day of the first day of the intake.
In addition, the p value is a statistical value showing the probability when the difference between glycine and placebo was hypothesized to be null. Particularly, this value of 0.05 or below is considered to indicate a significant difference.

[6] = 3 g 30 min before bedtime, next daytime, mean ± standard error
Experimental: as §1
(2) To evaluate the cognitive and psychomotor function as a reflection of the quality of sleep, an operation efficiency test using a computer was performed. As a three kind discrimination response task, a task of responding to only one predetermined kind from randomly designed three kinds of graphics on the screen was given.

[7] = 0-3 hr after administration, dark period
[8] = 0-3 hr after administration, light period
[9] = 4-6 hr after administration, dark period
[10] = 4-6 hr after administration, light period

NCC(=O)O [glycine, Glycine]
arousal during sleep [1]: reduced or eliminated arousal during sleep
R-R interval in electrocardiogram ([2]; 1-4 hr after administration, compared to control): increased
parasympathetic activity (high frequency component HF) ([2]; power spectrum analysis of R-R interval): dominant
OSA sleep questionnaire point value, time of dozing off ([3]; participant average of 4 levels (0, 11, 19, 30 points), higher = shorter dozing, placebo 19.6): 24.9
OSA sleep questionnaire point value, depth of sleep ([3]; participant average of 4 levels (0, 11, 21, 32 points), higher = deeper, placebo 12.3): 16.7
Percent occupation, fast wave sleep stage [4, 7]: 3.2 ± 1.7%
Percent occupation, slow wave sleep stage [4, 7]: 29.2 ± 6.5%
Percent occupation, waking stage [4, 7]: 67.6 ± 7.9%
Percent occupation, fast wave sleep stage [4, 8]: 5.5 ± 1.6%
Percent occupation, slow wave sleep stage [4, 8]: 54.9 ± 4.9%
Percent occupation, waking stage [4, 8]: 39.6 ± 6.0%
Percent occupation, fast wave sleep stage [4, 9]: 3.0 ± 0.7%
Percent occupation, slow wave sleep stage [4, 9]: 31.5 ± 2.8%
Percent occupation, waking stage [4, 9]: 65.6 ± 3.4%
Percent occupation, fast wave sleep stage [4, 10]: 13.4 ± 2.1%
Percent occupation, slow wave sleep stage [4, 10]: 65.9 ± 2.0%
Percent occupation, waking stage [4, 10]: 20.7 ± 0.8%
Amount of spontaneous motor activity at 6 hr after administration ([4]; dark period): 19464 ± 2765 count
Latency time, fast wave sleep stage ([4]; dark period): 118.2 ± 28.3 min
Latency time, slow wave sleep stage ([4]; dark period): 78.6 ± 22.8 min
Amount of spontaneous motor activity at 6 hr after administration ([4]; light period): 2316 ± 295 count
Latency time, fast wave sleep stage ([4]; light period): 20.9 ± 3.4 min
Latency time, slow wave sleep stage ([4]; light period): 8.5 ± 1.2 min
lassitude (SAM lassitude check list total points) ([5]; placebo 9.0 ± 0.68, p value 0.025): 7.0 ± 0.74
sleepiness (distance from left end of 100 mm line) ([5]; placebo 50.7 ± 4.39, p value 0.042): 38.1 ± 4.47 mm
Response time ([6]; placebo 0.393 ± 0.025, p value 0.028): 0.366 ± 0.021 s
Lapse (number of response where reaction time was 500 msec or longer) ([6]; placebo 2.67 ± 3.06, p value 0.017): 1.19 ± 1.69 times
percentage of correct answer ([6]; placebo 95.6 ± 5.20, p value 0.043): 98.4 ± 1.16%
